Experiment [1] deals with amidohydrolase (enzyme of this invention). Briefly: Effects of metal ions, chelating agents and -SH inhibitors on enzyme activity. The experiment is classed as biochemical, Streptomyces fulvoviridis A933. As to the method: (§1) Ten microliters of 0.2 M piperazine-N,N'-bis(2-ethanesulfonic acid) [=PIPES] buffer, pH 7.3, and 10 μl of 100 mM N-chloroacetyl-L-phenylalanine (adjusted to pH 6-7 with NaOH) are dissolved in 20 μl of water. After 10 μl of an enzyme solution (30-50 μg/ml) is added, the mixture is incubated at 37° C. for 15 minutes. Then, 50 μl of 50% acetic acid is added to stop the enzymatic reaction. The amount of L-phenylalanine produced from the substrate in the reaction solution is determined by the Yemm-Cocking ninhydrin colorimetric method (E. W. Yemm & E. C. Cocking: Analyst, Vol. 80, page 209, 1955) or with an amino acid automatic analyzer (Model 835-50, Hitachi Limited).
The relative activity in Table 2 refers to the activity of the enzyme in the absence of such chemical as 100.

For experiment [2] the test system is unchanged. Put plainly: Substrate specificity for N-acyl-amino acids (deacylation, standard assay). The experiment is classed as biochemical, Streptomyces fulvoviridis A933. The conditions noted are these: N-chloroacetyl-L-phenylalanine as 100. As to the method:
The relative activity in Table 1 refers to N-chloroacetyl-L-phenylalanine as 100.
as §1

For experiment [3] the test system is unchanged. Put plainly: Experiment B: acyl exchange of OA-6129A with acyl-CoA. Type of experiment: biochemical, Streptomyces fulvoviridis A933. As to conditions: acetyl-, n-propionyl-, n-butyryl- or glutaryl-CoA; 37° C., 3 hours. The procedure:
A mixture consisting of 10 μl of 0.2 M potassium phosphate buffer, pH 7.4, 10 μl of a solution of antibiotic OA-6129A (500 μg/ml), 10 μl of acyl-CoA (5 μmoles/ml), 10 μl of the enzyme preparation from Example 1 and 10 μl of water was allowed to react at 37° C. for 3 hours. The product was assayed by high voltage paper electrophoresis (HVPE) in the same way as in Experiment A.
As controls, the same mixture minus acyl-CoA and the same mixture minus the enzyme solution were incubated under the same conditions as mentioned above.
Acetyl-CoA, n-propionyl-CoA, n-butyryl-CoA and glutaryl-CoA were used as acyl-CoA.

In experiment [4] the test system is cell-free homogenate of Streptomyces cattleya (acylase). Briefly: Example 2: action of cell-free homogenate on PS-5 and OA-6129A. The experiment is classed as biochemical, Streptomyces cattleya (NRRL 8057). As to the method: Glucose (2.5 g), 1 g of corn steep liquor, 0.5 g of Pharmamedia® (a product of Traders Oil Mill Company), 0.5 g of yeast extract and 0.3 g of CaCO3 were dissolved in 100 ml of tap water, and the pH of the suspension was adjusted to 7.0. Then, 50 ml portions of the suspension were distributed in 250 ml Erlenmeyer flasks, and sterilized at 120° C. for 15 minutes. After cooling Streptomyces cattleya (NRRL 8057) was inoculated, and the flasks were cultivated at 28° C. for 90 hours with shaking.
Mycelia were collected by centrifugation and treated by the same procedure as in Example 1 to give 20 ml of a cell-free homogenate. With this fresh homogenate, the enzymological properties of Streptomyces cattleya acylase were examined.
A mixture containing 10 μl of 0.2 M potassium phosphate buffer, pH 7.4, 10 μl of an antibiotic PS-5 solution (500 μg/ml) or an antibiotic OA-6129A solution (500 μg/ml), 10 μl of acyl-CoA (5 μmoles/ml) and 20 μl of the cell-free homogenate was incubated at 37° C. for 4 hours. The product was analysed by HVPE in the same manner as in Experiment A.
The control reaction mixtures contained either no cell-free homogenate or no acyl-CoA. Acetyl-CoA and n-propionyl-CoA were used as acyl-CoA.

Experiment [5] relates to cell-free homogenate of Streptomyces cremeus subsp. auratilis. Put plainly: Example 3: action of cell-free homogenate on PS-5 and OA-6129A. The experiment is classed as biochemical. As to conditions: 37° C., 4 hours. The procedure: Soluble starch (5.2 g), 1.2 g of Essan-Miit, 0.16 g of NaCl, 0.08 g of K2 HPO4 and 0.04 g of MgSO4.7H2 O were dissolved in 80 ml of tap water and 40 ml portions of the suspension were filled in two 250 ml Erlenmeyer flasks. After autoclaving at 120° C. for 15 minutes, Streptomyces cremeus subsp. auratilis was inoculated, and cultivated at 28° C. for 68 hours. Using the same procedure as in Example 1, 20 ml of the cell-free homogenate was obtained. For confirmation of the enzyme activity, the following reactions were studied.
A mixture (50 μl) consisting of 10 μl of 0.2 M potassium phosphate buffer, pH 7.4, 10 μl of an antibiotic PS-5 solution (500 μg/ml) or an antibiotic OA-6129A solution (500 μg/ml), 20 μl of the cell-free homogenate and 10 μl of water was kept at 37° C. for 4 hours. The products were assayed by HVPE in the same way as in Experiment A.
As a control, the above reaction was carried out without the cell-free homogenate.

For experiment [6], the system named is amidohydrolase (enzyme of this invention). Put plainly: Experiment A: action of the enzyme on PS-5 and OA-6129A, HVPE bioautography and pantothenate bioassay. Type of experiment: biochemical, Streptomyces fulvoviridis A933. As to the method: A mixture (50 μl) consisting of 10 μl of 0.2 M potassium phosphate buffer, pH 7.4, 20 μl of an antibiotic PS-5 solution (500 μg/ml) or an antibiotic OA-6129A solution (500 μg/ml), 10 μl of the enzyme solution obtained in Example 1, and 10 μl of water was incubated at 37° C. for 3 hours.
As a control, the mixture minus the enzyme solution was allowed to react under the same conditions.
3 μl of each of the resulting reaction solutions was spotted on Watmann No. 1 filter paper, and subjected to electrophoresis for 50 minutes at 1500 V/30 cm with Veronal buffer, pH 8.6. After electrophoresis, the products were bioautographed with Comamonas terrigena B-996 as assay organism.

Experiment [7] has as its system cell-free homogenate of Streptomyces argenteolus. Briefly: Example 4: action of cell-free homogenate on PS-5 and OA-6129A. Type of experiment: biochemical. As to conditions: tested as in Example 3. As to the method:
Glycerol (4 g), 0.5 g of peptone, 0.2 g of glucose, 0.2 g of soluble starch, 0.5 g of Essan Miit®, 0.5 g of dry yeast, 0.5 g of NaCl and 0.2 g of CaCO3 were dissolved in 100 ml of tap water. Each 25 ml portion of the suspension was distributed in 250 ml Erlenmeyer flasks, and sterilized at 120° C. for 15 minutes. After cooling the culture medium, Streptomyces argenteolus was inoculated and cultivated at 28° C. for 68 hours with shaking. 20 ml of a cell extract was obtained. The same procedure of treatment as in Example 1 yielded 20 ml of a cell-free homogenate which was tested as explained in Example 3.

Where [8] appears, read: additive 1 mM, activity without additive as 100, 15 min.
Setting [9] is: additive 0.1 mM, activity without additive as 100, 15 min.

`[Cl][Cd][Cl]` [CdCl2]: in experiment [1] (setting [8]), the Relative activity is 10.2.

Turning to `[Cl-].[Cl-].[Co+2]` [CoCl2], the Relative activity came to 92.3 in experiment [1] (additive 0.2 mM, activity without additive as 100, 15 min); 82.4 in experiment [1] (setting [8]); 3.8 in experiment [1] (additive 2 mM, activity without additive as 100, 15 min); 0 in experiment [1] (additive 4 mM, activity without additive as 100, 15 min).

For `[Co+2]` [Co^++], in experiment [1] (known acylases are activated or stabilized by 0.5 to 10 mM), the “Effect of the ion on the enzyme (in words)” value is given as “inhibited”.

Regarding `[Cl][Cu][Cl]` [CuCl2], the Relative activity is given as 87.5 in experiment [1] (setting [9]) and 0 in experiment [1] (setting [8]).

As to `O=C(O)CN(CCN(CC(=O)O)CC(=O)O)CC(=O)O` [EDTA, ethylenediaminetetracetic acid], in experiment [1] (pipes buffer, pH 7.3, 15 min, 1000 µM), the Relative activity amounted to 95.8.

`O=S(=O)([O-])[O-].[Fe+2]` [FeSO4]: in experiment [1] (setting [8]), the Relative activity is listed as 53.2.

As to `[Cl][Hg][Cl]` [HgCl2], the Relative activity in experiment [1] (additive 0.01 mM, activity without additive as 100, 15 min) is 84.5; in experiment [1] (setting [9]) it was 6.4; in experiment [1] (setting [8]) it was 0.

Molecule `[Cl-].[Cl-].[Mg+2]` [MgCl2] gave a Relative activity in experiment [1] (setting [8]) of 93.6.

Consider `[Cl][Mn][Cl]` [MnCl2], for which, in experiment [1] (setting [8]), the Relative activity is 74.3.

`CC(=O)N[C@H](C)C(=O)O` [N--Acetyl-D-alanine] showed a Relative activity in experiment [2] of 0.

In experiment [2], `CC(=O)N[C@H](CC(C)C)C(=O)O` [N--Acetyl-D-leucine] showed a Relative activity of 0.

`CSCC[C@@H](NC(C)=O)C(=O)O` [N--Acetyl-D-methionine] showed a Relative activity in experiment [2] of 0.

In experiment [2], `CC(=O)N[C@H](Cc1ccccc1)C(=O)O` [N--Acetyl-D-phenylalanine] registered a Relative activity of 0.

For `CC(=O)N[C@@H](C(=O)O)C(C)C` [N--Acetyl-D-valine], the Relative activity in experiment [2] is on record as 0.

As to `CC(=O)N[C@@H](C)C(=O)O` [N--Acetyl-L-alanine], the Relative activity in experiment [2] worked out at 163.8.

`CC(=O)N[C@@H](CCC(=O)O)C(=O)O` [N--Acetyl-L-glutamic acid] displayed a Relative activity in experiment [2] of 2.7.

Turning to `CC(=O)N[C@@H](CC(C)C)C(=O)O` [N--Acetyl-L-leucine], the Relative activity in experiment [2] was found to be 92.8.

Regarding `CSCC[C@H](NC(C)=O)C(=O)O` [N--Acetyl-L-methionine], the Relative activity in experiment [2] was found to be 262.1.

The molecule `CC(=O)N[C@@H](Cc1ccccc1)C(=O)O` [N--Acetyl-L-phenylalanine] gave a Relative activity in experiment [2] of 15.3.

As for `CC(=O)N[C@H](C(=O)O)C(C)C` [N--Acetyl-L-valine], the Relative activity in experiment [2] is on record as 32.4.

In turn, `CC(=O)NCC(=O)O` [N--Acetyl-glycine] registered a Relative activity in experiment [2] of 23.9.

Molecule `CC(C)C[C@H](NC(=O)CCl)C(=O)O` [N--Chloroacetyl-L-leucine] showed a Relative activity in experiment [2] of 348.5.

For the molecule `O=C(CCl)N[C@@H](Cc1ccccc1)C(=O)O` [N--Chloroacetyl-L-phenylalanine], the Relative activity in experiment [2] stood at 100.

As to `CC(C)[C@H](NC(=O)CCl)C(=O)O` [N--Chloroacetyl-L-valine], in experiment [2], the Relative activity is on record as 351.1.

`CC(C)C[C@H](NC=O)C(=O)O` [N--Formyl-L-leucine] came in with a Relative activity in experiment [2] of 16.4.

In experiment [2], `CSCC[C@H](NC=O)C(=O)O` [N--Formyl-L-methionine] returned a Relative activity of 112.7.

Take `CC(=O)N[C@@H](CCCCN)C(=O)O` [N--α-Acetyl-L-lysine]: the Relative activity in experiment [2] amounted to 39.8.

For `O=S(=O)([O-])[O-].[Ni+2]` [NiSO4], in experiment [1] (setting [8]), the Relative activity is 79.4.

With `CCC1C(=O)N2C(C(=O)O)=C(SCCNC(=O)CCNC(=O)C(O)C(C)(C)CO)CC12` (centres unmarked) [OA-6129A], the “Exchange of the pantotheinyl group with the acyl group of acyl-CoA” value in experiment [3] is “catalyzes the exchange of the pantotheinyl group”. Further, in experiment [4] (acetyl-CoA present), the “Acyl exchange with acyl-CoA by the cell-free homogenate” value is recorded as “transform to PS-5”. For the same molecule, the “Depantothenylation by the cell-free homogenate” value was “catalyzes the depantothenylation” in experiment [4] (without acyl-CoA, 37° C., 4 hours); “has the ability to eliminate the pantotheinyl group” in experiment [5]; “does depantothenylate” in experiment [7]. Moreover, the “Depantothenylation of the substrate by the enzyme” value in experiment [6] (37° C., 3 hours, pH 7.4) is listed as “removes the pantotheinyl group”. The “Concentration of pantothenate in the reaction solution” value in experiment [6] (bioassay with Saccharomyces carlsbergensis (ATCC 9080), enzyme present) came to 8 µg/mL.

In the case of `CCC1C(=O)N2C(C(=O)O)=C(SCCNC(C)=O)CC12` (centres unmarked) [PS-5], in experiment [4] (irrespective of the presence of acyl-CoA, 37° C., 4 hours), the “Susceptibility of the substrate to the cell-free homogenate” value is recorded as “not susceptible”. Also, the “Deacetylation by the cell-free homogenate” value in experiment [5] and in experiment [7] was “no ability to deacetylate” throughout. The “Deacetylation of the substrate by the enzyme” value in experiment [6] (37° C., 3 hours, pH 7.4) is reported as “did not attack antibiotic PS-5 at all”.

In experiment [1] (setting [8]), `[Cl][Pb][Cl]` [PbCl2] registered a Relative activity of 58.8.

Molecule `[Cl][Sn][Cl]` [SnCl2] came in with a Relative activity in experiment [1] (setting [8]) of 64.4.

In turn, `[Cl-].[Cl-].[Zn+2]` [ZnCl2] displayed a Relative activity in experiment [1] (setting [8]) of 7.7.

Molecule `c1cnc2c(c1)ccc1cccnc12` [o-PT, ophenanthroline] returned a Relative activity in experiment [1] (setting [8]) of 56.4.

With `O=C(O)c1cc[c]([Hg][Cl])cc1` [p-CMB, pchloromercuribenzoic acid], in experiment [1] (setting [8]), the Relative activity worked out at 0.

The values above are taken from US4438201A, “Amidohydrolase having ability to depantothenylate an antibiotic” (Sanraku-Ocean Co., Ltd., priority 1981, dated 1984).
